Here are results for twelve compounds from PubChem BioAssay AID1745844 (Carcinogenic Potency Database (CPDB), 2022).

The series has as its system rodent lifetime carcinogenesis bioassay, tumor incidence TD50. In words: carcinogenic potency in animals, long-term in vivo studies, CPDB compilation (AID 1745844).

Calls of active or inactive are those of the source. The rule behind the calls is not given here.

Usually TD50 stands for the 50% point of the dose-response relation for the toxic effect studied. With `O=C(O)O`, the TD50 was 1330 mg/kg/day (inactive) (mouse, strain B6C3F1, males, in drinking water, site: liver, lesion: hepatocellular adenoma, dosed 52 weeks, study length 52 weeks); 5350 mg/kg/day (inactive) (rat, strain F344/DuCrj, males, in feed, site: urinary bladder, lesion: carcinoma, dosed 104 weeks, study length 104 weeks); 12800 mg/kg/day (rat, strain Wistar-random, females, in feed, site: urinary bladder, lesion: several types, types named in the paper, dosed 130 weeks, study length 130 weeks); 37100 mg/kg/day (rat, strain Wistar-random, females, in feed, site: urinary bladder, lesion: transitional-cell carcinoma, dosed 130 weeks, study length 130 weeks); 8280 mg/kg/day (rat, strain Wistar-random, females, in feed, site: urinary bladder, lesion: transitional-cell papilloma, dosed 78 weeks, study length 78 weeks); 20700 mg/kg/day (rat, strain Wistar-random, females, in feed, site: urinary bladder, lesion: transitional-cell papilloma, dosed 130 weeks, study length 130 weeks). In addition, the TD50 is 6400 mg/kg/day (rat, strain Wistar-random, males, in feed, site: urinary bladder, lesion: several types, types named in the paper, dosed 78 weeks, study length 78 weeks); 13200 mg/kg/day (rat, strain Wistar-random, males, in feed, site: urinary bladder, lesion: several types, types named in the paper, dosed 121 weeks, study length 121 weeks); 12900 mg/kg/day (rat, strain Wistar-random, males, in feed, site: urinary bladder, lesion: transitional-cell carcinoma, dosed 78 weeks, study length 78 weeks); 54400 mg/kg/day (rat, strain Wistar-random, males, in feed, site: urinary bladder, lesion: transitional-cell carcinoma, dosed 121 weeks, study length 121 weeks); 13100 mg/kg/day (rat, strain Wistar-random, males, in feed, site: urinary bladder, lesion: transitional-cell papilloma, dosed 78 weeks, study length 78 weeks); 17800 mg/kg/day (rat, strain Wistar-random, males, in feed, site: urinary bladder, lesion: transitional-cell papilloma, dosed 121 weeks, study length 121 weeks).
With `C#C[C@]1(C(C)=O)CC[C@H]2[C@@H]3CCC4=C[C@@H](C(C)=O)CC[C@@H]4[C@H]3CC[C@@]21C` (tested in a mixture with another compound), the TD50 is, setting by setting: (mouse, strain (C3H x RIII)F1 (MTV+), females, in feed, site: mammary tissue, wider than the gland, lesion: one or several types, types not named, dosed 104 weeks, study length 104 weeks) 0.858 mg/kg/day; (mouse, strain (C3H x RIII)F1 (MTV+), males, in feed, site: mammary tissue, wider than the gland, lesion: one or several types, types not named, dosed 104 weeks, study length 104 weeks) 0.3 mg/kg/day.
Turning to `Cc1c(N)nc(C)c2c1[nH]c1ccccc12`, the TD50 (mouse, strain CDF1, females, in feed, site: liver, lesion: hepatocellular carcinoma, dosed 88 weeks, study length 88 weeks) is 29.6 mg/kg/day; the TD50 (mouse, strain CDF1, females, in feed, site: liver, lesion: several types, types named in the paper, dosed 88 weeks, study length 88 weeks) was 25 mg/kg/day; the TD50 (mouse, strain CDF1, males, in feed, site: liver, lesion: hepatocellular carcinoma, dosed 88 weeks, study length 88 weeks) is 112 mg/kg/day; the TD50 (mouse, strain CDF1, males, in feed, site: liver, lesion: several types, types named in the paper, dosed 88 weeks, study length 88 weeks) is 109 mg/kg/day; the TD50 (rat, strain F344/DuCrj, females, in feed, site: liver, lesion: hepatocellular carcinoma, dosed 52 weeks, study length 52 weeks) was 0.577 mg/kg/day; the TD50 (rat, strain F344/DuCrj, males, in feed, site: liver, lesion: hepatocellular carcinoma, dosed 52 weeks, study length 52 weeks) was 0.574 mg/kg/day.
With `c1ccc2cc(Nc3ccc(Nc4ccc5ccccc5c4)cc3)ccc2c1`, the TD50 (mouse, strain B6AKF1, females, oral dosing, site: any site (literature study), lesion: several types, types named in the paper, dosed 76 weeks, study length 76 weeks) is 63.8 mg/kg/day (inactive); the TD50 (mouse, strain B6AKF1, females, oral dosing, site: lung, lesion: adenoma, dosed 76 weeks, study length 76 weeks) was 221 mg/kg/day (inactive); the TD50 (mouse, strain B6C3F1, females, oral dosing, site: any site (literature study), lesion: several types, types named in the paper, dosed 76 weeks, study length 76 weeks) is 235 mg/kg/day (inactive); the TD50 (mouse, strain B6C3F1, males, oral dosing, site: any site (literature study), lesion: several types, types named in the paper, dosed 76 weeks, study length 76 weeks) was 25.9 mg/kg/day (inactive); the TD50 (mouse, strain B6C3F1, males, oral dosing, site: liver, lesion: hepatoma, dosed 76 weeks, study length 76 weeks) is 59.4 mg/kg/day (inactive); the TD50 (mouse, strain B6C3F1, males, oral dosing, site: lung, lesion: adenoma, dosed 76 weeks, study length 76 weeks) was 192 mg/kg/day (inactive). For the same compound, the carcinogen call is “negative (inactive)” (mouse, strain B6AKF1, females, oral dosing, site: liver, lesion: hepatoma, dosed 76 weeks, study length 76 weeks); “negative (inactive)” (mouse, strain B6AKF1, males, oral dosing, site: any site (literature study), lesion: several types, types named in the paper, dosed 76 weeks, study length 76 weeks); “negative (inactive)” (mouse, strain B6AKF1, males, oral dosing, site: liver, lesion: hepatoma, dosed 76 weeks, study length 76 weeks); “negative (inactive)” (mouse, strain B6AKF1, males, oral dosing, site: lung, lesion: adenoma, dosed 76 weeks, study length 76 weeks); “negative (inactive)” (mouse, strain B6C3F1, females, oral dosing, site: liver, lesion: hepatoma, dosed 76 weeks, study length 76 weeks); “negative (inactive)” (mouse, strain B6C3F1, females, oral dosing, site: lung, lesion: several types, types named in the paper, dosed 76 weeks, study length 76 weeks).
Regarding `CCN(C#N)N=O`, the TD50 (rat, strain MRC-Wistar, females, in drinking water, site: any site (literature study), lesion: several types, types named in the paper, dosed 52 weeks, study length 90 weeks) was 3.17 mg/kg/day; the TD50 (rat, strain MRC-Wistar, females, in drinking water, site: respiratory system, lesion: one or several types, types not named, dosed 52 weeks, study length 90 weeks) was 2.91 mg/kg/day; the TD50 (rat, strain MRC-Wistar, males, in drinking water, site: respiratory system, lesion: one or several types, types not named, dosed 52 weeks, study length 90 weeks) was 4.99 mg/kg/day.
In the case of `O=S1(=O)N=C(O)c2ccccc21`, the carcinogen call was “negative (inactive)” (rat, strain Fischer 344, males, in feed, site: forestomach, lesion: papilloma, dosed 72 weeks, study length 73 weeks) and “negative (inactive)” (rat, strain Fischer 344, males, in feed, site: urinary bladder, lesion: carcinoma, dosed 72 weeks, study length 73 weeks).
Consider `O=[As]O`, for which the carcinogen call is, setting by setting: (mouse, strain Charles River CD1, both sexes, in drinking water, site: any site (literature study), lesion: benign tumor, dosed 104 weeks, study length 104 weeks) “negative (inactive)”; (mouse, strain Charles River CD1, both sexes, in drinking water, site: any site (literature study), lesion: malignant tumor, dosed 104 weeks, study length 104 weeks) “negative (inactive)”; (mouse, strain Charles River CD1, both sexes, in drinking water, site: any site (literature study), lesion: several types, types named in the paper, dosed 104 weeks, study length 104 weeks) “negative (inactive)”; (mouse, strain Charles River CD1, both sexes, in drinking water, site: liver, lesion: several types, types named in the paper, dosed 104 weeks, study length 104 weeks) “negative (inactive)”; (mouse, strain Charles River CD1, both sexes, in drinking water, site: lung, lesion: several types, types named in the paper, dosed 104 weeks, study length 104 weeks) “negative (inactive)”; (rat, strain Long-Evans BLU:(LE), both sexes, in drinking water, site: any site (literature study), lesion: malignant tumor, dosed 167 weeks, study length 167 weeks) “negative (inactive)”. Further, the carcinogen call is “negative (inactive)” (rat, strain Long-Evans BLU:(LE), both sexes, in drinking water, site: any site (literature study), lesion: one or several types, types not named, dosed 167 weeks, study length 167 weeks) and “negative (inactive)” (rat, strain Osborne-Mendel, both sexes, in feed, site: any site (literature study), lesion: several types, types named in the paper, dosed 104 weeks, study length 104 weeks). In addition, the TD50 is, setting by setting: (rat, strain Long-Evans BLU:(LE), both sexes, in drinking water, site: liver, lesion: one or several types, types not named, dosed 167 weeks, study length 167 weeks) 10.6 mg/kg/day (inactive); (rat, strain Osborne-Mendel, both sexes, in feed, site: any site (literature study), lesion: malignant tumor, dosed 104 weeks, study length 104 weeks) 626 mg/kg/day (inactive).
As to `O=C1NC(O)CCN1[C@@H]1O[C@H](CO)[C@@H](O)[C@H]1O` (stereo partly drawn), the TD50 (rat, strain Fischer 344, males, i.p., site: any site (literature study), lesion: one or several types, types not named, dosed 52 weeks, study length 52 weeks) is 15.7 mg/kg/day.
In the case of `Oc1ccc(Cl)cc1Cl`, the carcinogen call by setting is: (mouse, strain B6C3F1, females, in feed, site: any site (literature study), lesion: several types, types named in the paper, dosed 103 weeks, study length 104 weeks) “negative (inactive)”; (rat, strain Fischer 344, females, in feed, site: any site (literature study), lesion: several types, types named in the paper, dosed 103 weeks, study length 104 weeks) “negative (inactive)”; (rat, strain Fischer 344, males, in feed, site: any site (literature study), lesion: several types, types named in the paper, dosed 103 weeks, study length 104 weeks) “negative (inactive)”. In addition, the TD50 (mouse, strain B6C3F1, males, in feed, site: forestomach, lesion: squamous-cell carcinoma + squamous-cell papilloma, dosed 103 weeks, study length 104 weeks) is 12400 mg/kg/day (inactive); the TD50 (mouse, strain B6C3F1, males, in feed, site: liver, lesion: hepatocellular adenoma + hepatocellular carcinoma + neoplastic nodule, dosed 103 weeks, study length 104 weeks) was 458000 mg/kg/day; the TD50 (mouse, strain B6C3F1, males, in feed, site: lung, lesion: alveolar/bronchiolar adenoma + alveolar/bronchiolar carcinoma, dosed 103 weeks, study length 104 weeks) stood at 13300 mg/kg/day.
On to `COc1ccccc1N1CCN(CCCNc2cc(=O)n(C)c(=O)n2C)CC1`, for which the carcinogen call is “negative (inactive)” (rat, strain Slc-Wistar, females, by gavage, site: liver, lesion: one or several types, types not named, dosed 52 weeks, study length 52 weeks) and “negative (inactive)” (rat, strain Slc-Wistar, males, by gavage, site: liver, lesion: one or several types, types not named, dosed 52 weeks, study length 52 weeks).
`CCOCCc1c(-c2ccccc2)nc(N)n2ncnc12`: the TD50 is 307 mg/kg/day (rat, strain Charles River CD (Sprague-Dawley), females, in feed, site: liver, lesion: hepatocellular adenoma, dosed 97 weeks, study length 105 weeks); 646 mg/kg/day (rat, strain Charles River CD (Sprague-Dawley), females, in feed, site: liver, lesion: hepatocellular carcinoma, dosed 97 weeks, study length 105 weeks); 3010 mg/kg/day (rat, strain Charles River CD (Sprague-Dawley), females, in feed, site: mammary gland, lesion: adenoma, dosed 97 weeks, study length 105 weeks); 669 mg/kg/day (rat, strain Charles River CD (Sprague-Dawley), females, in feed, site: mammary gland, lesion: carcinoma, dosed 97 weeks, study length 105 weeks); 9710 mg/kg/day (rat, strain Charles River CD (Sprague-Dawley), females, in feed, site: thyroid gland, lesion: adenoma, dosed 97 weeks, study length 105 weeks); 2530 mg/kg/day (rat, strain Charles River CD (Sprague-Dawley), males, in feed, site: liver, lesion: hepatocellular adenoma, dosed 97 weeks, study length 105 weeks). Besides, the TD50 runs as follows: (rat, strain Charles River CD (Sprague-Dawley), males, in feed, site: liver, lesion: hepatocellular carcinoma, dosed 97 weeks, study length 105 weeks) 4160 mg/kg/day; (rat, strain Charles River CD (Sprague-Dawley), males, in feed, site: thyroid gland, lesion: adenoma, dosed 97 weeks, study length 105 weeks) 11000 mg/kg/day; (rat, strain Charles River CD (Sprague-Dawley), males, in feed, site: thyroid gland, lesion: carcinoma, dosed 97 weeks, study length 105 weeks) 12400 mg/kg/day.
For the compound `[O]=[Cr][O][Cr]=[O]`, the carcinogen call was “negative (inactive)” (rat, strain BD, both sexes, in feed, site: hypophysis, lesion: adenoma, dosed 85 weeks, study length 187 weeks) and “negative (inactive)” (rat, strain BD, both sexes, in feed, site: mammary gland, lesion: carcinoma, dosed 85 weeks, study length 187 weeks). For the setting “rat, strain BD, both sexes, in feed, site: mammary gland, lesion: fibroadenoma, dosed 85 weeks, study length 187 weeks”, the TD50 was 237000 mg/kg/day (inactive).
